Measurements taken from paper PMC7217877, “N-AS-triggered SPMs are direct regulators of microglia in a model of Alzheimer’s disease” (Nature Communications, 2020).
Several values for one entry are separate records, joined by “and”; a condition that tells them apart may be missing. Equal entries are not always repeated.

Molecular target: T1, COX2 T564A (Homo sapiens, UniProt P35354, T564A)
T1 construct: His (N); made in house
T1 sequence (P35354 18-604 T564A): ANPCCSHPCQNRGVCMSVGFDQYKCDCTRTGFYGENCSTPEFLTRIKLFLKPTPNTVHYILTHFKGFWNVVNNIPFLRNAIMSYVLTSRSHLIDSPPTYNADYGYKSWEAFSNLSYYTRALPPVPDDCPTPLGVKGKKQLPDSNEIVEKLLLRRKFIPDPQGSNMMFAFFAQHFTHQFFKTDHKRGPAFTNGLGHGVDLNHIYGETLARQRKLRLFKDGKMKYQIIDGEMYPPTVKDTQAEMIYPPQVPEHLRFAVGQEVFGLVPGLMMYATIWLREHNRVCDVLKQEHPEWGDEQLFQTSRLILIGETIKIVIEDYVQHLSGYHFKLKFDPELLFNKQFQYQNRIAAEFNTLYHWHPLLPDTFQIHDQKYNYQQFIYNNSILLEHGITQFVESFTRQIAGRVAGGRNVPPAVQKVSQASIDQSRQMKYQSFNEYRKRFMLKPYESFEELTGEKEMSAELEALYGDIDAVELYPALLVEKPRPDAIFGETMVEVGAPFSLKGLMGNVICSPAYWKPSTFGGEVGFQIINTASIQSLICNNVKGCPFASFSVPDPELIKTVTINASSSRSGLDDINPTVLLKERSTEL
Assay: in vitro [14C] acetylation assay of purified COX2
Assay type: biochemical
Design: unit not given here
Conditions: replicates, listed as C14 N-AS
Text: Single point mutations in SphK1 (R56A, R57A, R24A, R185A, D178A, and F192A) and COX2 (S565A, N181A, T564A, and S567A) were generated using the In-Fusion Cloning Kits (Clontech) and ORF cDNA expression plasmids of human SphK1 and COX2 gene (Sino Biological Inc, HG15679-NH and HG12036-NH), according to the manufacturer’s instructions. The forward and reverse primers described in Supplementary Table 4. The SphK1 WT, SphK1 mutants, COX2 WT, and COX2 mutant plasmids were transformed in the One shot TOP 10 competent cell (Invitrogen). The bacteria were grown in Luria-Bertani (LB, Invitrogen) plates supplemented with 50 μg ml^−1 kanamycin (Sigma-Aldrich) at 37 °C. The bacterial cell pellets were resuspended in lysis buffer containing 20 mM sodium phosphate (GE Healthcare), 500 mM NaCl (GE Healthcare), 20 mM imidazole (pH 7.4) (GE Healthcare), 0.2 mg ml^−1 lysozyme (Sigma-Aldrich), 20 μg ml^−1 DNase I (Roche), 1 mM MgCl2 (Sigma-Aldrich), and 1 mM PMSF (Sigma-Aldrich) before being lysed by sonication and clarified by centrifugation at 15,493×g for 10 min. […]
Acetylation assays were performed according to previously described procedures with minor modifications. […] Acetylated COX2 proteins bound to the beads were analyzed using a Tri-Carb 3110TR liquid scintillation counter (Perkin-Elmer).

CCCCCCCCCCCCC/C=C/[C@@H](O)[C@H](CO)NC(C)=O [N-AS, N-((2S,3R,E)-1,3-Dihydroxyoctadec-4-en-2-yl)acetamide]
C14 radioactivity of COX2, acetylation assay (Fig 1h): 226529 and 226073 and 226403 and 227396 and 226676 and 226952
